Measured values published in patent publication US8012952B2, “Cationic 17 α-substituted-estradiol derivatives useful as anti-cancer agent” (Council of Scientific & Industrial Research, priority 2007, dated 2011).

How the values were obtained:
[1] = tested on: T47D cells; experiment: MTT cell viability assay, T47D cells; conditions: Homo sapiens, read-out: in-vitro percent cell viability
Experimental: (§1) The in vitro cytotoxicities of the derivative A to various cancer and non-cancer cells across different molar concentrations (0.5 μM-50 μM) were performed. The cancer cells were chosen from various origins, such as breast cancer cells MCF-7 (primary carcinoma), T47D (ductal carcinoma), MDA-MB-468 (secondary, metastatic); cervical cancer cell Hela; lung cancer cell A549 (metastatic). […] In one set of experiments, the cells were treated at different concentrations of derivative A for 4 h, washed and kept in serum media for 6 days to observe cellular toxicity using MTT assay (FIGS. 1, 2, 4, 6A and 6B), except for one cell line where the assay was done after 4 days (FIG. 3). In another set of experiment, the cells were treated continuously for 48 h in presence of serum media and cellular toxicities were assayed promptly (FIG. 5).
(§2) Cells and Cell Culture. CHO (Chinese hamster ovary), COS-1 (African Green monkey kidney cells) HeLa (Human cervical carcinoma), MCF-7 (Human breast primary adenocarcinoma), T47D (Human breast ductal carcinoma), MDA-MB-468 (Human breast secondary adenocarcinoma), and A-549 (Human lung carcinoma) cell lines were procured from the National Centre for Cell Sciences (NCCS), Pune, India and were mycoplasma free. […] The cells were trypsinized, counted, subcultured in 96-well plates for viability studies. […]

[2] = tested on: Hela cells; experiment: MTT cell viability assay, Hela cells; conditions: Homo sapiens, read-out: in-vitro percent cell viability
Experimental: as §1, §2

[3] = tested on: MCF-7 cells; experiment: MTT cell viability assay, MCF-7 cells; conditions: Homo sapiens, MCF7, read-out: in-vitro percent cell viability
Experimental: as §1, §2

[4] = tested on: MDA-MB-468 cells; experiment: MTT cell viability assay, MDA-MB-468 cells; conditions: Homo sapiens, MDA-MB-468, read-out: in-vitro percent cell viability
Experimental: as §1, §2

Measured: viability at 50 µM

CCCCCCCC[N+](C)(CCCCCCCC)CCC[C@]1(O)CCC2C3CCc4cc(O)ccc4C3CC[C@@]21C (stereo partly drawn) [Derivative 1, 17α-[3-N,N-dioctyl(methyl)aminopropane]-17β-Estradiol]
2 to 10%: all assays above
